# Laboratory results: patent US20110046105A1, “Heterocycle-substituted imidazolidine-2,4-diones, process for preparation thereof, medicaments comprising them and use thereof” (SANOFI-AVENTIS, priority 2008, published 2011)
# Tests used:
# [1] = target: T1, cannabinoid CB1 receptor (CB1) (Mus musculus, UniProt P47746); test: Antagonization of CB1-mediated hypothermia; format: in vivo; conditions: female NMRI mice; 1.25 mg/kg intraperitoneally; within 30 min
# T1 construct: from tissue; host or cells: whole animal (female NMRI mice)
# T1 sequence (P47746 whole entry): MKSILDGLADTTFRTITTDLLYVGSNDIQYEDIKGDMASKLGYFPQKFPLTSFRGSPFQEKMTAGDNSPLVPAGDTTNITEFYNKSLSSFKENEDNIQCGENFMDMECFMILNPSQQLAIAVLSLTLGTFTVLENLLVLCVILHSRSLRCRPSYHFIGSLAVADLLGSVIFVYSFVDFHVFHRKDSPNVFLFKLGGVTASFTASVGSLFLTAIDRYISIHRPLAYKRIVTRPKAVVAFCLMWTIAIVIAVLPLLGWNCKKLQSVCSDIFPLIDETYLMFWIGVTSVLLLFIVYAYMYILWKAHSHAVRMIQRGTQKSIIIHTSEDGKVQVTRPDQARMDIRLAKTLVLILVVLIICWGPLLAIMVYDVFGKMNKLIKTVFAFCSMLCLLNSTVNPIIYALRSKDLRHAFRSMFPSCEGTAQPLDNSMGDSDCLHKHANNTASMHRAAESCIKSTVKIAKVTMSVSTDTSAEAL
# Experimental: The test is used to measure the potency of cannabinoid CB1 receptor (CB1) antagonists. What is measured is the extent to which the CB1 antagonists to be tested are capable of preventing or of antagonizing hypothermia induced by a CB1 agonist.
# Female NMRI mice, 25-35 g in weight, are used. The mice are accustomed to the housing conditions for at least one week.
# At time 0 min, the animals are treated orally, intravenously or intraperitoneally with the CB1 antagonist to be tested. 30 min later, the CB1 agonist CP55.940, 1.25 mg/kg, is administered to the mice intraperitoneally. This brings about a fall in the body temperature by 5-6° C. within 30 min. The body temperature is measured rectally for the first time 30 min before the test substance administration and then every 30 min after this administration, if appropriate immediately before a substance administration, over 4 hours.
# The potency of the test substances is reported as the percentage decrease in the area under the temperature-time curve which is formed firstly by the average basal temperature, and secondly by the temperature-time curve, of the animals treated exclusively with the CB1 antagonist.
# [2] = target: T2, hCB1R (Homo sapiens, UniProt P21554); test: Binding to the CB1 receptor ([3H]-SR141716A displacement); set-up: expressed in transfected cells; host or cells: CHO-K1; conditions: CHO-K1/cannabinoid CB1 protein; ligand [3H]-SR141716A 0.5 nM; Ki from IC50 by Cheng-Prusoff
# T2 sequence (P21554 whole entry): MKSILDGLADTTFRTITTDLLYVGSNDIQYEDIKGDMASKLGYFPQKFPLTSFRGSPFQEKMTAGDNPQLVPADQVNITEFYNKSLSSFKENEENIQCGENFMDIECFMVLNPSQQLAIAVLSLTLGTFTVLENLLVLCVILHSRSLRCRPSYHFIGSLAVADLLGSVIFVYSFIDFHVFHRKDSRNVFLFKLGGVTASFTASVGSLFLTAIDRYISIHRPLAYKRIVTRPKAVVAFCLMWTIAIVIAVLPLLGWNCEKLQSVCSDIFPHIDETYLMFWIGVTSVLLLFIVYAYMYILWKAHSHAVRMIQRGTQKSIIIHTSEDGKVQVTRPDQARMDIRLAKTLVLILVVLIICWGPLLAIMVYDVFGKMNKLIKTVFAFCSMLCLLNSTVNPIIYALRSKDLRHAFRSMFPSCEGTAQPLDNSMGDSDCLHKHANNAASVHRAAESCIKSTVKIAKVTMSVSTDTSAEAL
# Experimental: Test compounds: The compounds (3 μl, 10 mM, 100% DMSO), pipetted into 96-well PP microtiter plates, were diluted with 27 μl of 100% DMSO (dimethyl sulfoxide). Proceeding from this solution, further 3-fold dilution steps were undertaken by transferring 10 μl in each case to a new PP microtiter plate and adding a further 20 μl of 100% DMSO. In each case 6 μl of these solutions were transferred into new 96-well PP microtiter plates and made up with 144 μl of assay buffer. The end concentrations ranged from 10 μM to 0.005 μM.
# Negative control: AM 251, dissolved in assay buffer with 1% DMSO, was added to the dilution series in the microtiter plates as a control. The end concentration was 1 μM.
# Blank control: assay buffer with 1% DMSO was added to the dilution series of the microtiter plates as a blank control.
# High control: ^3H binding without addition of the compound
# Low control: ^3H binding in the presence of 1 μM AM 251
# The values were calculated using the corrected raw data.
# The values reported were obtained as average values of a double determination. The IC50 values were calculated from the measurements with the program Xlfit, formula 205. Ki values were obtained from the IC50 and Kd values utilizing the Cheng-Prusoff equation: […]
# Literature: Cheng, Y.-C., and Prusoff, W. H. (1973) Biochem. Pharmacol 22, 3099-3108
# [3] = target: T2, hCB1R; test: In vitro functional assay with recombinant cells (FLIPR), cannabinoid 1 receptor; format: cell-based; set-up: expressed in transfected cells; host or cells: HEK293; conditions: recombinant HEK293 cells expressing CB1 and G-protein Galpha16; intracellular Ca2+ change against reference agonist
# Experimental: (§1) Function-testing assays were performed by means of the FLIPR technique (“Fluorometric Imaging Plate Reader”, Molecular Devices Corp.).
# (§2) To this end, ligand-induced changes in the intracellular concentration of Ca^2+ in recombinant HEK293 cells, which expressed both a cannabinoid receptor (CB1 or CB2) and G-protein Galpha16, were determined. For the studies, cells were sown into 96-well microtiter plates (60 000 cells/well) and left to grow overnight. The medium was removed and the cells were incubated in buffer which contained the fluorescent dye Fluo-4. After this loading with dye, the cells were washed, test substance was added dissolved in buffer, the mixture was incubated for 20 minutes, a known cannabinoid receptor agonist as a reference agonist was added in buffer and, finally, the changes in the intracellular Ca^2+ concentration were measured in the FLIPR unit.
# (§3) Results were presented as the percentage change relative to the control (0%: analogous experiment without test substance and without reference agonist, i.e. only with buffer; 100%: analogous experiment without test substance, but with reference agonist in excess), and used to calculate dose/action curves, and IC50 values were determined.
# The values of the functional assay compared to the cannabinoid 1 receptor including illustrative selectivities compared to the cannabinoid 2 receptor can be taken from table 1 which follows.
# [4] = target: T3, hCB2R (Homo sapiens, UniProt P34972); test: In vitro functional assay with recombinant cells (FLIPR), cannabinoid 2 receptor; format: cell-based; conditions: recombinant HEK293 cells expressing CB2 and G-protein Galpha16; intracellular Ca2+ change against reference agonist
# T3 construct: expressed in transfected cells; host or cells: HEK293
# T3 sequence (P34972 whole entry): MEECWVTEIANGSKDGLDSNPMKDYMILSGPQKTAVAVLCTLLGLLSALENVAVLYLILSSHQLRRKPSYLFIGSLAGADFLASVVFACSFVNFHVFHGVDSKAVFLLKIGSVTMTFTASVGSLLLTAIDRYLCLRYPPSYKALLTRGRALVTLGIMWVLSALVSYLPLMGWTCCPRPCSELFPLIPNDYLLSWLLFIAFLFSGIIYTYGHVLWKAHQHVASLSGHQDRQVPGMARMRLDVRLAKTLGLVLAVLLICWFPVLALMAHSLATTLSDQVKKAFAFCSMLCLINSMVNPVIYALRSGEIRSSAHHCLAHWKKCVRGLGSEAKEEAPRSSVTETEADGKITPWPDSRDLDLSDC
# Experimental: as §1, §2
# as §3, with “determined. […]” for “determined.”
Structure (SMILES),fall in the body temperature [1],Ki [2] [nM],IC50 [3] [nM],IC50 [4] [nM]
CCCCCCC(C)(C)c1ccc([C@@H]2C[C@H](O)CC[C@H]2CCCO)c(O)c1 [CP55.940],5-6 °C,,,
"CC1(C)C(=O)N(c2ccc(C#N)c(C(F)(F)F)c2)C(=O)N1Cc1ccccc1Nc1ccc(CN2CCNCC2=O)cc1 [Example 1, 4-(4,4-dimethyl-2,5-dioxo-3-{2-[4-(2-oxopiperazin-1-ylmethyl)phenylamino]-benzyl}imidazolidin-1-yl)-2-trifluoromethylbenzonitrile]",,34,,
"CC1(C)C(=O)N(c2ccc(F)c(C(F)(F)F)c2)C(=O)N1Cc1ccccc1Nc1ccc(-c2nnn[nH]2)cc1 [Example 2, 3-(4-fluoro-3-trifluoromethylphenyl)-5,5-dimethyl-1-{2-[4-(1H-tetrazol-5-yl)phenylamino]benzyl}imidazolidine-2,4-dione]",,108,205,> 10000
"CC1(C)C(=O)N(c2ccc(F)c(C(F)(F)F)c2)C(=O)N1Cc1ccc(F)cc1Nc1ccc(N2CCCC2=O)cc1 [Example 4, 1-{4-fluoro-2-[4-(2-oxopyrrolidin-1-yl)phenylamino]benzyl}-3-(4-fluoro-3-trifluoromethylphenyl)-5,5-dimethylimidazolidine-2,4-dione]",,103,,
"CC1(C)C(=O)N(c2ccc(F)c(C(F)(F)F)c2)C(=O)N1Cc1ccc(F)cc1Nc1ccc(-n2cnc3ccccc32)cc1 [Example 5, 1-[2-(4-benzimidazol-1-ylphenylamino)-4-fluorobenzyl]-3-(4-fluoro-3-trifluoromethylphenyl)-5,5-dimethylimidazolidine-2,4-dione]",,4,6,
"COC(=O)C1CC(=O)N(c2ccc(Nc3cc(F)ccc3CN3C(=O)N(c4ccc(F)c(C(F)(F)F)c4)C(=O)C3(C)C)cc2)C1 (centres unmarked) [Example 6, methyl 1-(4-{5-fluoro-2-[3-(4-fluoro-3-trifluoromethylphenyl)-5,5-dimethyl-2,4-dioxoimidazolidin-1-ylmethyl]phenylamino}phenyl)-5-oxopyrrolidine-3-carboxylate]",,40,,
"CCOc1ccc(Nc2ccc(Nc3cc(F)ccc3CN3C(=O)N(c4ccc(F)c(C(F)(F)F)c4)C(=O)C3(C)C)cc2)nn1 [Example 7, 1-{2-[4-(6-ethoxypyridazin-3-ylamino)phenylamino]-4-fluorobenzyl}-3-(4-fluoro-3-trifluoromethylphenyl)-5,5-dimethyl-imidazolidine-2,4-dione]",,18,32,
"COc1ccc(Nc2ccc(Nc3cc(F)ccc3CN3C(=O)N(c4ccc(F)c(C(F)(F)F)c4)C(=O)C3(C)C)cc2)nn1 [Example 8, {4-fluoro-2-[4-(6-methoxypyridazin-3-ylamino)phenylamino]benzyl}-3-(4-fluoro-3-trifluoro-methylphenyl)-5,5-dimethylimidazolidine-2,4-dione]",,10,24,
"CC1(C)C(=O)N(c2ccc(F)c(C(F)(F)F)c2)C(=O)N1Cc1ccc(F)cc1Nc1ccc(Nc2ccc(Cl)nn2)cc1 [Example 10, 1-{2-[4-(6-chloropyridazin-3-ylamino)phenylamino]-4-fluorobenzyl}-3-(4-fluoro-3-trifluoromethylphenyl)-5,5-dimethyl-imidazolidine-2,4-dione]",,7,34,
"CC1(C)C(=O)N(c2ccc(F)c(C(F)(F)F)c2)C(=O)N1Cc1ccc(F)cc1Nc1ccc(N2CCNCC2=O)cc1 [Example 13, 1-{4-fluoro-2-[4-(2-oxopiperazin-1-yl)phenylamino]benzyl}-3-(4-fluoro-3-trifluoromethylphenyl)-5,5-dimethylimidazolidine-2,4-dione]",,,125,
"CC1(C)C(=O)N(c2ccc(F)c(C(F)(F)F)c2)C(=O)N1Cc1ccc(F)cc1Nc1ccc(N2CCC(O)CC2)cc1 [Example 14, 1-{4-fluoro-2-[4-(4-hydroxypiperidin-1-yl)phenylamino]benzyl}-3-(4-fluoro-3-trifluoromethylphenyl)-5,5-dimethylimidazolidine-2,4-dione]",,,9,
"CC1(C)C(=O)N(c2ccc(F)c(C(F)(F)F)c2)C(=O)N1Cc1ccc(F)cc1Nc1ccc(C2NC(=O)NC2=O)cc1 (centres unmarked) [Example 15, 1-{2-[4-(2,5-dioxoimidazolidin-4-yl)phenylamino]-4-fluorobenzyl}-3-(4-fluoro-3-trifluoromethylphenyl)-5,5-dimethylimidazolidine-2,4-dione]",,,60,
"CC1(C)C(=O)N(c2ccc(F)c(C(F)(F)F)c2)C(=O)N1Cc1ccc(F)cc1Nc1ccc(N2CCNC2=O)cc1 [Example 16, 1-{4-fluoro-2-[4-(2-oxoimidazolidin-1-yl)phenylamino]benzyl}-3-(4-fluoro-3-trifluoromethylphenyl)-5,5-dimethylimidazolidine-2,4-dione]",,,23,
"CC1(C)C(=O)N(c2ccc(F)c(C(F)(F)F)c2)C(=O)N1Cc1ccc(F)cc1Nc1ccc(OC2CCOCC2)cc1 [Example 18, 1-{4-fluoro-2-[4-(tetrahydropyran-4-yloxy)phenylamino]benzyl}-3-(4-fluoro-3-trifluoromethylphenyl)-5,5-dimethylimidazolidine-2,4-dione]",,,93,
